We go through five compounds from publication PMC9090415, “Discovery of small molecule inhibitors of Plasmodium falciparum apicoplast DNA polymerase” (Journal of Enzyme Inhibition and Medicinal Chemistry, 2022).

For the experiment, the target named is T1, bacteriophage T4 DNA polymerase (Enterobacteria phage T4, UniProt P04415).
T1 construct: made in house
T1 sequence (P04415 1-898): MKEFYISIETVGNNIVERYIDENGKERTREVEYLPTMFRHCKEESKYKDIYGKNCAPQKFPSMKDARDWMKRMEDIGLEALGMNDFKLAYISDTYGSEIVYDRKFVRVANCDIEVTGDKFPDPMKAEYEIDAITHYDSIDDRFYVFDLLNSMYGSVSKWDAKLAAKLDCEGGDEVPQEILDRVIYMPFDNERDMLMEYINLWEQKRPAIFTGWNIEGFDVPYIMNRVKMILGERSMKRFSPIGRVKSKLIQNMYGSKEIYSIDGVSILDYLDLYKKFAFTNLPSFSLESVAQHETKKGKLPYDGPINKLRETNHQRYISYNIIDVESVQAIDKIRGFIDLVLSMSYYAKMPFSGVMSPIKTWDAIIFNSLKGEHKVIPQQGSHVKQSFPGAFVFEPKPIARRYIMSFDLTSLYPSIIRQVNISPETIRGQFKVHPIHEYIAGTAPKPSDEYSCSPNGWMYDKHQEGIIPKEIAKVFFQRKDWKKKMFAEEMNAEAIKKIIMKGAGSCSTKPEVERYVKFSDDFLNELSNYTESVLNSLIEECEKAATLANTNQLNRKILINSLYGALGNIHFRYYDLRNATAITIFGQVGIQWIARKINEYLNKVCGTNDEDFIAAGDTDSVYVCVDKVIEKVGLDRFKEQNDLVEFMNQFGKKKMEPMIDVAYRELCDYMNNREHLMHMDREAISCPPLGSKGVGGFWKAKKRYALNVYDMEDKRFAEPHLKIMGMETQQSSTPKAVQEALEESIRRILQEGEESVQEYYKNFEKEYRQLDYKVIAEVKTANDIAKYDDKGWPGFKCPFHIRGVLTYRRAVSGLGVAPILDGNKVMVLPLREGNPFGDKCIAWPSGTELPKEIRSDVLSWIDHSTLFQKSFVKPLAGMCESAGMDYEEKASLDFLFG
As to the kind of experiment: Counter-screen against bacteriophage T4 DNA polymerase. Type of experiment: biochemical. Conditions: for % inhibition T4 10' 2.5 / % inhibition T4 10' 5 / % inhibition T4 10' 10 / % inhibition T4 10' 20 / % inhibition T4 10' 40 / % inhibition T4 10' 80: read at 10'; for % inhibition T4 70' 2.5 / % inhibition T4 70' 5 / % inhibition T4 70' 10 / % inhibition T4 70' 20 / % inhibition T4 70' 40 / % inhibition T4 70' 80: read at 70'; for % inhibition T4 130' 2.5 / % inhibition T4 130' 5 / % inhibition T4 130' 10 / % inhibition T4 130' 20 / % inhibition T4 130' 40 / % inhibition T4 130' 80: read at 130'; for % inhibition T4 40' 2.5 / % inhibition T4 40' 5 / % inhibition T4 40' 10 / % inhibition T4 40' 20 / % inhibition T4 40' 40 / % inhibition T4 40' 80: read at 40'; for % inhibition T4 180' 2.5 / % inhibition T4 180' 5 / % inhibition T4 180' 10 / % inhibition T4 180' 20 / % inhibition T4 180' 40 / % inhibition T4 180' 80: read at 180'. The gist of the method: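 IC50 values come from dose-response testing of each compound against T4 DNA polymerase. This B-family polymerase was purified in-house and used as the counter-screen.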

The mark [1] stands for this setting: DRC-2, read at 90', concentration 2.5.
The mark [2] stands for this setting: DRC-2, read at 90', concentration 10.
The mark [3] stands for this setting: DRC-2, read at 90', concentration 20.
Where [4] appears, read: DRC-2, read at 90', concentration 40.
The mark [5] stands for this setting: DRC-2, read at 90', concentration 80.

For `CC(C)CC(C(=O)O)N1C(=O)C2C3C=CC(C2C1=O)C1C(=O)N(C(CC(C)C)C(=O)O)C(=O)C31` (centres unmarked) [KU0193449], for the setting “DRC-1, concentration 2.5”, the “% inhibition T4 10' 2.5” value is on record as 3.278%, the “% inhibition T4 70' 2.5” value came out at 0.3673% and the “% inhibition T4 130' 2.5” value is recorded as -2.364%. Besides, for the setting “DRC-1, concentration 5”, the “% inhibition T4 10' 5” value was 4.491%, the “% inhibition T4 70' 5” value is on record as 1.3204% and the “% inhibition T4 130' 5” value is listed as -1.909%. For the same compound, where the note is “DRC-1, concentration 10”, the “% inhibition T4 10' 10” value is 8.777%, the “% inhibition T4 70' 10” value is 2.619% and the “% inhibition T4 130' 10” value is on record as -0.6043%. For the setting “DRC-1, concentration 20”, the “% inhibition T4 10' 20” value is 7.866%, the “% inhibition T4 70' 20” value is on record as 3.878% and the “% inhibition T4 130' 20” value worked out at 0.2689%. Also, under “DRC-1, concentration 40”, the “% inhibition T4 10' 40” value came to 21.6809%, the “% inhibition T4 70' 40” value is 15.5336% and the “% inhibition T4 130' 40” value came out at 11.2312%. Further, under “DRC-1, concentration 80”, the “% inhibition T4 10' 80” value was determined as 52.1619%, the “% inhibition T4 70' 80” value is listed as 40.8979% and the “% inhibition T4 130' 80” value stood at 34.0378%. Moreover, where the note is “DRC-2, concentration 2.5”, the “% inhibition T4 10' 2.5” value stood at 4.54%, the “% inhibition T4 40' 2.5” value worked out at 4.54% and the “% inhibition T4 180' 2.5” value was -1%. Moreover, under “DRC-2, concentration 5”, the “% inhibition T4 10' 5” value came to 4.24%, the “% inhibition T4 40' 5” value amounted to 4.24% and the “% inhibition T4 180' 5” value is recorded as -1.88%. Besides, where the note is “DRC-2, concentration 10”, the “% inhibition T4 10' 10” value stood at 10%, the “% inhibition T4 40' 10” value stood at 10% and the “% inhibition T4 180' 10” value was found to be 0.586%. Under “DRC-2, concentration 20”, the “% inhibition T4 10' 20” value amounted to 15%, the “% inhibition T4 40' 20” value was determined as 15% and the “% inhibition T4 180' 20” value amounted to 2.64%. In addition, for the setting “DRC-2, concentration 40”, the “% inhibition T4 10' 40” value was 28%, the “% inhibition T4 40' 40” value worked out at 28% and the “% inhibition T4 180' 40” value amounted to 15%. Further, under “DRC-2, concentration 80”, the “% inhibition T4 10' 80” value is 55%, the “% inhibition T4 40' 80” value stood at 55% and the “% inhibition T4 180' 80” value is recorded as 45%. Further, the “% inhibition T4 90' 2.5” value under setting [1] amounted to 4%. The “% inhibition T4 90' 5” value (DRC-2, read at 90', concentration 5) is 3%. The “% inhibition T4 90' 10” value under setting [2] worked out at 7%. Besides, the “% inhibition T4 90' 20” value under setting [3] is reported as 11%. Also, the “% inhibition T4 90' 40” value under setting [4] worked out at 24%. Further, the “% inhibition T4 90' 80” value under setting [5] came to 52%.

For the compound `CCCCC(=O)N1CCc2c(nc3cc(-c4ccccc4Cl)[nH]n3c2=O)C1` [Molecule 37, CCCCC(=O)N1CCc2c(C1)nc1n(c2=O)[nH]c(c1)c1ccccc1Cl], the “% inhibition T4 10'” value reads like this: (DRC-2, concentration 2.5) 6%; (DRC-2, concentration 5) -3%; (DRC-2, concentration 10) 3.42%; (DRC-2, concentration 20) 0.821%; (DRC-2, concentration 40) 4.74%; (DRC-2, concentration 80) 1.57%. The “% inhibition T4 40'” value is 6% (DRC-2, concentration 2.5); -3% (DRC-2, concentration 5); 3.42% (DRC-2, concentration 10); 0.821% (DRC-2, concentration 20); 4.74% (DRC-2, concentration 40); 1.57% (DRC-2, concentration 80). Besides, the “% inhibition T4 90'” value is, setting by setting: (DRC-2, concentration 2.5) 5%; (DRC-2, concentration 40) 5%.

As to `CC(C)(C)OC(=O)COc1ccc2cc(-c3ccccc3)c(=O)oc2c1` [Molecule 81, O=C(OC(C)(C)C)COc1ccc2c(c1)oc(=O)c(c2)c1ccccc1], the “% inhibition T4 10'” value reads like this: (DRC-2, concentration 10) 13%; (DRC-2, concentration 40) 7%. Further, the “% inhibition T4 40'” value is 16% (DRC-2, concentration 2.5); 13% (DRC-2, concentration 5); 10% (DRC-2, concentration 10); 6% (DRC-2, concentration 20); 6% (DRC-2, concentration 80). In addition, the “% inhibition T4 90'” value (DRC-2, concentration 2.5) is on record as 16%; the “% inhibition T4 90'” value (DRC-2, concentration 5) turned out to be 13%; the “% inhibition T4 90'” value (DRC-2, concentration 10) was 10%; the “% inhibition T4 90'” value (DRC-2, concentration 20) was found to be 6%. Moreover, the “% inhibition T4 180'” value is, setting by setting: (DRC-2, concentration 2.5) 13%; (DRC-2, concentration 10) 7%.

Take `Cc1cccc2c(C(=O)NC(C)C)cc(N(C)C)nc12` [Molecule 47, CC(NC(=O)c1cc(nc2c1cccc2C)N(C)C)C]: the “% inhibition T4 10'” value (DRC-2, concentration 20) worked out at 28%. Where the note is “DRC-2, concentration 40”, the “% inhibition T4 10'” value was 30% and the “% inhibition T4 90'” value came to 31%. Further, under “DRC-2, concentration 80”, the “% inhibition T4 10'” value is 30%, the “% inhibition T4 90'” value turned out to be 31% and the “% inhibition T4 180'” value is on record as 28%.

As for `CC(=O)OCC1=C(C(=O)[O-])N2C(=O)[C@@H](NC(=O)Cc3cccs3)[C@H]2SC1.[Na+]` [Molecule 73, CC(=O)OCC1=C(C(=O)[O-])N2[C@H](SC1)[C@@H](C2=O)NC(=O)Cc1cccs1.[Na+]], for the setting “DRC-1, concentration 2.5”, the “% inhibition T4 10' 2.5” value worked out at 11.7205%, the “% inhibition T4 70' 2.5” value worked out at 9.196% and the “% inhibition T4 130' 2.5” value was determined as 4.91%. For the same compound, for the setting “DRC-1, concentration 5”, the “% inhibition T4 10' 5” value is reported as 17.9504%, the “% inhibition T4 70' 5” value is recorded as 11.8887% and the “% inhibition T4 130' 5” value stood at 7.499%. Besides, under “DRC-1, concentration 10”, the “% inhibition T4 10' 10” value is 24.8784%, the “% inhibition T4 70' 10” value turned out to be 17.9088% and the “% inhibition T4 130' 10” value is reported as 13.1805%. Under “DRC-1, concentration 20”, the “% inhibition T4 10' 20” value came out at 32.107%, the “% inhibition T4 70' 20” value is listed as 22.6844% and the “% inhibition T4 130' 20” value is reported as 16.8593%. In addition, under “DRC-1, concentration 40”, the “% inhibition T4 10' 40” value stood at 49.9492%, the “% inhibition T4 70' 40” value is 42.1653% and the “% inhibition T4 130' 40” value is reported as 38.0136%. In addition, where the note is “DRC-1, concentration 80”, the “% inhibition T4 10' 80” value was 43.1529%, the “% inhibition T4 70' 80” value is 41.199% and the “% inhibition T4 130' 80” value is on record as 33.8147%. Where the note is “DRC-2, concentration 2.5”, the “% inhibition T4 10' 2.5” value turned out to be 0.14%, the “% inhibition T4 40' 2.5” value came out at 0.442% and the “% inhibition T4 180' 2.5” value came to 0.485%. Where the note is “DRC-2, concentration 5”, the “% inhibition T4 10' 5” value came out at 0.574%, the “% inhibition T4 40' 5” value came out at 0.491% and the “% inhibition T4 180' 5” value is listed as -2.85%. In addition, where the note is “DRC-2, concentration 10”, the “% inhibition T4 10' 10” value is given as 12%, the “% inhibition T4 40' 10” value is on record as 11% and the “% inhibition T4 180' 10” value worked out at 6.41%. Further, under “DRC-2, concentration 20”, the “% inhibition T4 10' 20” value worked out at 17%, the “% inhibition T4 40' 20” value worked out at 17% and the “% inhibition T4 180' 20” value was found to be 14%. Where the note is “DRC-2, concentration 40”, the “% inhibition T4 10' 40” value is on record as 26%, the “% inhibition T4 40' 40” value is listed as 25% and the “% inhibition T4 180' 40” value stood at 20%. Further, under “DRC-2, concentration 80”, the “% inhibition T4 10' 80” value came to 36%, the “% inhibition T4 40' 80” value came out at 42% and the “% inhibition T4 180' 80” value is given as 41%. Besides, the “% inhibition T4 90' 2.5” value under setting [1] was 1.28%. Further, the “% inhibition T4 90' 10” value under setting [2] stood at 10%. In addition, the “% inhibition T4 90' 20” value under setting [3] came to 17%. Moreover, the “% inhibition T4 90' 40” value under setting [4] is on record as 23%. Besides, under setting [5], the “% inhibition T4 90' 80” value was determined as 41%.
